Assays:
Assay in all cases: selective drug sensitivity score (sDSS, relative to normal bone marrow) (sDSS (score)); higher = more potent and effective on the cell line relative to normal bone marrow cells
Conditions in all cases: 72 h
JURKAT = tested on: JURKAT
TANOUE = tested on: TANOUE
MOLT-16 = tested on: MOLT-16
HPB-ALL = tested on: HPB-ALL
LC4-1 = tested on: LC4-1
REH = tested on: REH
COG-LL-332h = tested on: COG-LL-332h
DND-41 = tested on: DND-41
697 = tested on: 697
RCH-ACV = tested on: RCH-ACV
MOLT-4 = tested on: MOLT-4
NALL-1 = tested on: NALL-1
COG-LL-402h = tested on: COG-LL-402h
MOLT-14 = tested on: MOLT-14
KASUMI-10 = tested on: KASUMI-10
PF-382 = tested on: PF-382
P12-ICHIKAWA = tested on: P12-ICHIKAWA
MHH-CALL-3 = tested on: MHH-CALL-3
CCRF-HSB2 = tested on: CCRF-HSB2
COG-LL-319h = tested on: COG-LL-319h
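Also: ALL cell lines in 384-well plates, five doses spanning 10,000-fold, each plate scaled between vehicle and 100 µmol/L benzalkonium chloride controls, sDSS an adapted area-under-curve metric.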

| Structure (SMILES) | selective drug sensitivity score (JURKAT) | selective drug sensitivity score (TANOUE) | selective drug sensitivity score (MOLT-16) | selective drug sensitivity score (HPB-ALL) | selective drug sensitivity score (LC4-1) | selective drug sensitivity score (REH) | selective drug sensitivity score (COG-LL-332h) | selective drug sensitivity score (DND-41) | selective drug sensitivity score 697 | selective drug sensitivity score (RCH-ACV) | selective drug sensitivity score (MOLT-4) | selective drug sensitivity score (NALL-1) | selective drug sensitivity score (COG-LL-402h) | selective drug sensitivity score (MOLT-14) | selective drug sensitivity score (KASUMI-10) | selective drug sensitivity score (PF-382) | selective drug sensitivity score (P12-ICHIKAWA) | selective drug sensitivity score (MHH-CALL-3) | selective drug sensitivity score (CCRF-HSB2) | selective drug sensitivity score (COG-LL-319h) |
| --- | --- | --- | --- | --- | --- | --- | --- | --- | --- | --- | --- | --- | --- | --- | --- | --- | --- | --- | --- | --- |
| CC(=O)OC[C@H]1O[C@@H]([S-])[C@H](OC(C)=O)[C@@H](OC(C)=O)[C@@H]1OC(C)=O.CCP(CC)CC.[Au+] [Auranofin] (top concentration 2500 nM) | -1.76 | -1.06 | 1.74 | 5.64 | 6.34 | 6.04 | 1.44 | 1.94 | 1.94 | 3.84 | -0.46 | 3.14 | 7.84 | 0.04 | 5.54 | -1.36 | -0.96 | 4.04 | -1.86 | 8.24 |
| CNC(=O)c1ccccc1Sc1ccc2c(/C=C/c3ccccn3)n[nH]c2c1 [Axitinib] (top concentration 10000 nM) | 5.06 | -2.94 | 13.1 | 7.56 | 11.8 | 9.36 | 13.3 | 0.16 | 14.7 | 11.1 | 12.2 | 5.56 | 5.86 | 8.56 | 1.86 | 6.96 | 12.1 | -2.44 | 11 | 7.96 |
| Cc1c(N)nc([C@H](CC(N)=O)NC[C@H](N)C(N)=O)nc1C(=O)N[C@H](C(=O)N[C@H](C)[C@@H](O)[C@H](C)C(=O)N[C@H](C(=O)NCCc1nc(-c2nc(C(=O)NCCC[S+](C)C)cs2)cs1)[C@@H](C)O)[C@@H](O[C@@H]1O[C@@H](CO)[C@@H](O)[C@H](O)[C@@H]1O[C@H]1O[C@H](CO)[C@@H](O)[C@H](OC(N)=O)[C@@H]1O)c1c[nH]cn1 [Bleomycin] (top concentration 10000 nM) | -0.96 | -1.86 | 4.54 | -1.86 | 0.54 | 9.44 | 8.04 | 1.14 | 4.74 | 7.54 | 2.24 | -1.56 | 2.84 | 0.94 | 1.14 | 1.94 | -0.56 | 4.14 | -0.06 | 7.84 |
| CC(C)C[C@H](NC(=O)[C@H](Cc1ccccc1)NC(=O)c1cnccn1)B(O)O [Bortezomib] (top concentration 1000 nM) | 1.72 | -9.68 | 2.02 | 5.22 | 3.32 | 4.92 | 4.22 | 6.02 | 2.62 | 3.42 | 2.22 | 2.52 | 1.32 | 1.52 | 2.92 | 1.82 | 2.22 | 2.72 | 5.82 | 4.02 |
| CCC/C=C/C=C/C(=O)O[C@H]1/C(=C/C(=O)OC)C[C@H]2C[C@H]([C@@H](C)O)OC(=O)C[C@H](O)C[C@@H]3C[C@H](OC(C)=O)C(C)(C)[C@](O)(C[C@@H]4C/C(=C/C(=O)OC)C[C@H](/C=C/C(C)(C)[C@]1(O)O2)O4)O3 [Bryostatin_1] (top concentration 100 nM) | -0.02 | -6.82 | -7.12 | -7.12 | 30.6 | -7.12 | -7.12 | 0.88 | 12 | -7.12 | -7.12 | -7.12 | -5.72 | -7.12 | 6.78 | 4.18 | 1.68 | -7.12 | 20.4 | -7.12 |
| CO[C@H]1CC[C@H](N2C(=O)CNc3ncc(-c4ccc(C(C)(C)O)nc4)nc32)CC1 [CC-223] (top concentration 10000 nM) | 0.02 | -3.88 | 4.12 | -0.28 | 0.42 | 4.22 | 1.92 | 1.32 | 5.02 | 9.62 | -0.48 | 5.52 | 2.92 | 0.62 | -1.38 | 1.42 | 1.92 | 8.82 | 2.62 | 5.12 |
| CN(C)c1cc2c(cc1Sc1nc3c(N)nccc3n1CCNCC(C)(C)C)OCO2 [CUDC-305] (top concentration 10000 nM) | 1.22 | -6.68 | 4.42 | 4.42 | -0.98 | 3.32 | 3.82 | 5.92 | 2.92 | 4.02 | 6.02 | 0.42 | 3.92 | 5.12 | 3.52 | 3.82 | 2.82 | -11.7 | 8.12 | -2.48 |
| CO[C@H]1C(=O)[C@]2(C)[C@@H](OC)C[C@H]3OC[C@@]3(OC(C)=O)[C@H]2[C@H](OC(=O)c2ccccc2)[C@]2(O)C[C@H](OC(=O)[C@H](O)[C@@H](NC(=O)OC(C)(C)C)c3ccccc3)C(C)=C1C2(C)C [Cabazitaxel] (top concentration 1000 nM) | 18.3 | -11.5 | 26.7 | 11.6 | 22.4 | 17.9 | 22.1 | -4.32 | 23.7 | 22.9 | 18.4 | 11.4 | 17.1 | 22.7 | 12.4 | 10.9 | 3.08 | 6.78 | 21.1 | 16.9 |
| C=CC(=O)Nc1cc2c(Nc3ccc(F)c(Cl)c3)ncnc2cc1OCCCN1CCOCC1 [Canertinib] (top concentration 10000 nM) | -1.14 | -7.24 | 1.86 | 0.76 | 2.76 | 0.26 | 1.86 | 1.36 | 1.66 | 1.26 | -2.14 | -0.94 | 4.86 | -0.04 | 4.66 | -0.54 | -1.54 | 12.6 | 6.36 | 3.36 |
| CC(C)C[C@H](NC(=O)[C@H](CCc1ccccc1)NC(=O)CN1CCOCC1)C(=O)N[C@@H](Cc1ccccc1)C(=O)N[C@@H](CC(C)C)C(=O)[C@@]1(C)CO1 [Carfilzomib] (top concentration 1000 nM) | -4.04 | -8.24 | 1.36 | 3.96 | 2.36 | 3.16 | 5.16 | 5.36 | 0.66 | 0.86 | 0.86 | 0.56 | 2.86 | 1.16 | 0.36 | 1.86 | 1.26 | 2.86 | 3.86 | 2.56 |
| O=C(c1ccc(F)c(F)c1Nc1ccc(I)cc1F)N1CC(O)([C@@H]2CCCCN2)C1 [Cobimetinib] (top concentration 1000 nM) | -3.68 | -3.68 | -3.68 | -3.68 | -0.68 | -3.68 | -3.08 | 2.62 | -2.58 | -3.68 | -3.68 | -1.88 | -0.98 | 5.22 | -3.68 | -3.28 | -1.88 | 6.22 | -0.28 | -1.28 |
| COc1c(OCCCN2CCOCC2)ccc2c1N=C(NC(=O)c1cnc(N)nc1)N1CCN=C21 [Copanlisib] (top concentration 1000 nM) | -3.62 | -6.52 | 7.68 | 0.48 | -4.22 | 8.28 | 2.78 | -2.72 | 3.48 | 22.2 | 4.48 | -0.62 | 8.88 | -3.92 | -1.32 | 2.58 | -0.42 | -0.62 | 1.98 | 3.18 |
| Cn1c(=O)n(-c2ccc(C(C)(C)C#N)cc2)c2c3cc(-c4cnc5ccccc5c4)ccc3ncc21 [Dactolisib] (top concentration 1000 nM) | 7.26 | -2.54 | 16.1 | 1.36 | 5.16 | 12.9 | 5.96 | 5.66 | 15.8 | 21.3 | 5.76 | 3.46 | 5.36 | 0.36 | -1.04 | 9.36 | 4.76 | 3.26 | 11.1 | -7.44 |
| O=C(/C=C/c1cccnc1)NCCCCC1CCN(C(=O)c2ccccc2)CC1 [Daporinad] (top concentration 1000 nM) | 8.76 | 7.66 | 11.2 | 7.96 | 14.2 | 15.5 | 17 | 19.9 | 16.3 | 19.5 | 5.86 | 15.9 | 16.4 | 4.66 | 12.1 | 18.4 | 9.16 | 14.6 | 6.76 | 9.76 |
| CC(=O)N(O)CCCCCNC(=O)CCC(=O)N(O)CCCCCNC(=O)CCC(=O)N(O)CCCCCN [Deferoxamine] (top concentration 10000 nM) | 2.26 | 3.46 | 6.26 | 4.06 | 1.76 | 2.46 | 10.4 | 5.16 | 6.26 | 3.86 | 3.56 | -0.74 | 5.76 | 8.76 | 3.06 | 4.66 | 3.66 | -0.54 | 4.86 | 7.86 |
| Cc1cc(Nc2cc(N3CCN(C)CC3)nc(/C=C/c3ccccc3)n2)n[nH]1 [ENMD-2076] (top concentration 10000 nM) | 3.64 | -9.16 | 7.04 | 4.44 | 7.64 | 4.14 | 4.34 | -0.46 | 9.54 | 8.84 | 5.74 | 5.84 | 4.24 | 6.64 | 9.14 | 1.34 | 8.24 | -2.76 | 9.74 | 5.54 |

Source: the supplement of paper PMC8967900
